The text below walks through data of PMC12227560, “Total synthesis of a sorrentanone ester library and evaluation of its antimicrobial potential” (Scientific Reports, 2025).

The structures appear in SMILES notation. Converted amounts (≈) assume the structure as drawn. Where only a bound is given, the exact number is not on record here.

In series [1] the test system is two S. aureus strains and B. subtilis ATCC6633. As to the kind of experiment: Antimicrobial assay, Gram-positive bacteria. It is filed as cell-based. The conditions noted are these: from MIC values. The text has this: (§1) 3. Bioactivity and Toxicity Assays
(§2) Antimicrobial assay: According to the standard broth micro-dilution assays, following the Standards of European Committee on Antimicrobial Susceptibility Testing (v 7.3.1: Method for the determination of broth dilution minimum inhibitory concentrations of antifungal agents for yeasts) for Candida spp., and according to the standard broth micro-dilution assays, recommended by the National Committee for Clinical Laboratory Standards (M07-A8) for bacteria MIC values of compounds were determinate. Compounds were dissolved in DMSO at a concentration of 50 mg/mL, and the highest tested concentration was 250 µg/mL. The inoculums were 1x10^5 colony forming units (CFU/mL), for Candida species, and bacteria species, 5x10^5 colony forming units (CFU/mL). The MIC value was recorded as the lowest concentration that inhibited the growth after 24 h at 37 °C. Additionally, 5 µL from each well of 96 well plates was transferred to Luria Agar (LA) plates for bacteria and Sabouraud agar (SAB) plates for Candida spp. and incubated for an additional 24 h at 37 °C, to determine MBC (Minimum bactericidal/fungicidal concentration) values. In Table 1. Are labeled compounds showing a difference in MBC and previously determined MIC values. […]

The subject of series [2] is human lung fibroblast cell line (MRC-5). As to the kind of experiment: Cytotoxicity evaluation by MTT assay. It is filed as cell-based. The conditions noted are these: for cell survival: MRC-5 cells, 10 µg/mL, 48 h.
From the text: as §1
Antimicrobial assay: According to the standard broth micro-dilution assays, following the Standards of European Committee on Antimicrobial Susceptibility Testing (v 7.3.1: Method for the determination of broth dilution minimum inhibitory concentrations of antifungal agents for yeasts) for Candida spp., and according to the standard broth micro-dilution assays, recommended by the National Committee for Clinical Laboratory Standards (M07-A8) for bacteria MIC values of compounds were determinate. Compounds were dissolved in DMSO at a concentration of 50 mg/mL, and the highest tested concentration was 250 µg/mL. The inoculums were 1x10^5 colony forming units (CFU/mL), for Candida species, and bacteria species, 5x10^5 colony forming units (CFU/mL). The MIC value was recorded as the lowest concentration that inhibited the growth after 24 h at 37 °C. Additionally, 5 µL from each well of 96 well plates was transferred to Luria Agar (LA) plates for bacteria and Sabouraud agar (SAB) plates for Candida spp. and incubated for an additional 24 h at 37 °C, to determine MBC (Minimum bactericidal/fungicidal concentration) values. In Table 1. Are labeled compounds showing a difference in MBC and previously determined MIC values.
Cytotoxicity evaluation: Antiproliferative activity was tested by MTT assay (3-(4,5-dimethylthiazol-2-yl)-2,5-diphenyltetrazoliumbromide) on a human lung fibroblast cell line (MRC-5; ATCC collection). Pre-grown (24 h) cell monolayers (1x10^4 cells per well) in RPMI 1640 medium supplemented with 100 μg/mL streptomycin, 100 U/mL penicillin, and 10% (v/v) FBS (all from Sigma, Munich, Germany) containing the tested compounds at concentrations ranging from 5 to 20 μg/mL were incubated in a humidified atmosphere of 95% air and 5% CO2 at 37 °C for 48 h. The cell viability (extent of MTT reduction) was measured spectrophotometrically at 540 nm using the Epoch 2000 multiplate reader, and the cell survival was expressed as a percentage of the control (untreated cells). Cytotoxicity was expressed as the concentration of the compound inhibiting cell growth by 50% (IC 50). […]
On the technique in general: Tetrazolium assays rely on reduction of a dye to a coloured formazan, in cell work by metabolically active cells.

In another series the test system is P. aeruginosa ATCC27853. As to the kind of experiment: Antimicrobial broth micro-dilution assay (MIC). The conditions noted are these: Pseudomonas aeruginosa; P. aeruginosa ATCC27853; 24 h at 37 °C; highest tested concentration 250 µg/mL; read-out: Minimum inhibitory concentration (MIC). It counts as cell-based.
From the text: as §1, §2
A general note: In broth dilution the organism is exposed to a series of concentrations in liquid medium.

For the next series, the system named is S. aureus MRSA. The series is described as follows: Antimicrobial broth micro-dilution assay (MIC). It counts as cell-based. Conditions: Staphylococcus aureus; S. aureus MRSA; 24 h at 37 °C; highest tested concentration 250 µg/mL; read-out: Minimum inhibitory concentration (MIC).
From the text: as §1, §2

In series [3] the test system is ergosterol in C. albicans. The series is described as follows: Ergosterol biosynthesis assay. The conditions noted are these: 0.5 MIC; Candida cells; UV profile. It is filed as cell-based, Candida albicans. How it is done: Ergosterol biosynthesis assay: Ergosterol levels were measured according to the published procedure with some minor modifications. 10 Briefly, a sing le C. albicans colony from an overnight Sabouraud dextrose agar plate was used to inoculate 50 ml of Sabouraud dextrose broth containing 0.5 MIC concentrated compounds. Incubation was performed for 18 h at 37 °C on the rotary shaker at 180 rpm. Cells were harvested by centrifugation at 3000 rpm for 5 min and washed once with sterile distilled water. The net wet weight of the cell pellet was determined. Three milliliters of 25% alcoholic potassium hydroxide solution (25 g of KOH and 35 ml of sterile distill ed water, brought to 100 ml with 100% ethanol), was added to each pellet and vortex mixed for 1 min and incubated in an 85 °C water bath for 1 h. Tubes were cooled to room temperature and extraction of sterols was done with the addition of a mixture of 1 ml of sterile distilled water and 3 ml of n-heptane followed by vigorous vortex mixing for 3 min. The heptane layer was used for spectrophotometrically measuring ergosterol concentrations by scanning absorbance between 240 nm and 300 nm using Ultrospec 3300pro 573 (Amer sham Biosciences, Amersham, UK).

In series [4] the test system is C. albicans ATCC 10231 hyphae formation. The series is described as follows: Filamentation test on Candida (solid spider medium). It counts as cell-based, Candida albicans. The conditions noted are these: 0.5 times MIC; 120 h; C. albicans ATCC10231. How it is done:
Filamentation test on Candida: Using solid composition, the effect of sorrentano ne […]
albicans cells from an overnight culture grown in Sabouraud dextrose broth medium at 37 °C with or without compounds were centrifuged for 10 minutes at maximum speed, and the pellet was washed several times with sterile PBS (phosphate -buffered saline). After it, the pellet was resuspended in 200 µL PBS, and 2 µL of cell suspension was poured over solid composition and incubated at 37 °C for 120 h. Morphological changes of C. albicans ATCC

Series [5] deals with C. albicans ATCC10231 biofilm formation. As to the kind of experiment: Anti-biofilm activity assessment (crystal violet). The conditions noted are these: for inhibition of biofilm formation (in words): data not shown. It is filed as cell-based, Candida albicans. How it is done:
Anti-biofilm activity assessment: The effect of compounds on biofilms formation was determined on C. albicans ATCC 10231 strain. Anti -biofilm assays were conducted using a previously reported methodology with small modifica tions.9 The assay was carried out in 96 - well round-bottom polystyrene microtiter plates. Cells wer e harvested from overnight grown cultures, washed twice with sterile phosphate -buffered saline (PBS; Sigma -Aldrich, Munich, Germany), and resuspended in RPMI 1640 medium (Sigma -Aldrich) containing 2% glucose (w/v) at a concentration of 1 × 10^5 CFU/mL. C. albicans suspension was incubated with 0.5 MIC, 1 MIC, and 2 MIC compounds concentration in 200.0 μL final volume per well for 48 h at 37 °C to allow biofilm formation. Biofilm growth was analyzed by crystal violet (CV) staining of adherent cells and the a bsorbance at 590.0 nm was read on a Tecan Infinite 200 Pro multiplate reader (Tecan Group Ltd., Männedorf, Switzerland). […]

Turning to `CC1=C(O)C(=O)C(C)=C(C(=O)OCCCC(C)C)C1=O` [compound 36], in series [1], the “improvement of antibacterial activity compared to sorrentanone (7)” value is given as “two- to four-fold improved activity”. The cell survival result in series [2] is given as “over 60%”. Also, the MIC is > 250 µg/mL with P. aeruginosa ATCC27853 and 31.2 µg/mL (≈ 111 µM) in the series with S. aureus MRSA. In series [3], the “reduction of total amount of ergosterol (in words)” value is “most potent in reducing the total amount of ergosterol”. In addition, the “filamentation (in words)” value in series [4] is reported as “hardly observed”. Moreover, the “inhibition of biofilm formation (in words)” value in series [5] is on record as “displayed inhibition of biofilm formation”.

For `CC1=C(O)C(=O)C(C)=C(C(=O)OCc2ccccc2)C1=O` [compound 41], in series [1], the “improvement of antibacterial activity compared to sorrentanone (7)” value is listed as “two- to four-fold improved activity”. In addition, the cell survival entry in series [2] is “over 60%”. Also, the “selectivity index (SI)” value in series [2] (cytotoxicity versus antibiotic activity, calculation not described) is recorded as 0.77. Further, the MIC is > 250 µg/mL in the series on P. aeruginosa ATCC27853 and 15.6 µg/mL (≈ 54.5 µM) in the series with S. aureus MRSA. In series [3], the “reduction of total amount of ergosterol (in words)” value was “most potent in reducing the total amount of ergosterol”. For the same compound, the “filamentation (in words)” value in series [4] was “hardly observed”. In addition, the “inhibition of biofilm formation (in words)” value in series [5] was “displayed inhibition of biofilm formation”. Also, in series [5] (sub-inhibitory concentration (0.5 times MIC), 48 h), the “inhibition of biofilm formation” value is on record as 60–77%.
